Test results taken from patent US20160287696A1, “PAN POLLEN IMMUNOGENS AND METHODS AND USES FOR IMMUNE RESPONSE MODULATION” (LA JOLLA INSTITUTE FOR ALLERGY AND IMMUNOLOGY, priority 2013, published 2016).
“And” between values parts separate entries of the source, which are not always exact repeats. Equal entries are not always repeated.

Experiments:
[1] = system: cultured PBMCs of the allergic donors; test: ELISPOT of IL-5 or IFNg production by cultured PBMCs of TG allergic donors in response to peptide; assay type: cell-based, human; details: for No of PG+ & th+ peptides per NTGA / No of PP & Th+ peptides per NTGA: Table 6; for No of PG+ & th+ peptides per NTGA: PG+ peptides recognized by T cells of grass allergic donors (n=20); for No of PP & Th+ peptides per NTGA: PP peptides recognized by T cells of grass allergic donors (n=20); for # Th+: Table 7, peptides per NTGA recognized by T cells of grass allergic donors (n=20); for NTGA's containing at least one T cell epitope, Th+ (Col 2): NTGA number given = criterion met, TG allergic donors n=20
Excerpt: Table 1 indicates for each of the 397 PG+ peptides in which non-grass pollen species a matching peptide with either less than 3, less than 2 or zero mismatches are found. The number of TG grass allergic donors (n=20) with an in vitro T cell response to the TG peptide sequence is also shown.
A set of 93 proteins from Timothy grass (TG) pollen and the assembly of 822 peptides (15 mers) predicted to promiscuously bind HLA class II molecules shown in Table 9 and the immune reactivity in allergic donors have been reported in PCT application WO 2013/119863. […] Immune reactivity was determined by the production of IL-5 or IFNg from cultured PBMCs of the allergic donors in response to stimulation with a peptide and IL-5 and IFNg were measured by ELISPOT as described in Oseroff C et al, 2010.
In short, T cell immune reactivity was determined using PBMCs isolated from study participants and stored in liquid nitrogen until further use. For experimental testing, PBMCs were thawed and expanded in vitro with TG pollen extract (50 μg/mL) or the peptide pool ([…]). The TG extract and peptide pools had each been previously titrated to determine optimal stimulation concentrations.
Cytokine production by cultured PBMCs in response to antigen stimulation was measured by ELISPOT. Cells (1×10^5 cells/well) were plated and incubated with peptide (10 μg/mL), the peptide pool (5 μg/mL), or the TG extract (50 μg/mL). Phytohaemagglutinin (10 μg/mL) and medium alone were used as positive and negative controls, respectively. Samples were considered to produce a cytokine if 100 spot-forming cells (SFCs)/10^6 PBMCs were detected, with P .05 and a stimulation index of 2 or more. Criteria for individual peptides were the same except that a minimum of 20 SFCs were required for a sample to be counted as positive.
Table 3 lists the 397 PG+ peptides and indicates for each non-grass pollen species whether a matching peptide with either less than 3, less than 2 or zero mismatches could be detected. The immune reactivity of the TG peptide was assessed as the number of TG grass allergic donors (n=20) having in vitro T cell response against the TG peptide.

[2] = system: PBMCs from Phl p reactive donors; test: Cross-reactivity: IL-5 ELISPOT of PBMCs expanded 14 days with individual peptides, response to pollen extracts; assay type: cell-based, human; details: for Ant o % Reactivity: Ant o (grass) pollen extract; for Bet v % Reactivity: Bet v (tree) pollen extract; for Lol p % Reactivity: Lol p (grass) pollen extract; for Que a % Reactivity: Que a (tree) pollen extract; for Controls, Relevant Pool: control: response to relevant pool of cells expanded with the peptide; for % Reactivity, Fra e: reactivity of Fra e (tree) pollen extract as percentage of the reactivity to the peptide, cells expanded with the peptide for 14 days
Method: For each peptide, TG allergic donors were selected that reacted to the peptide after expanding PBMCs in vitro with TG extract. […] Reponses to extracts and peptide pools are expressed as the relative fraction of the response to the peptide itself, and capped at 100%.
Each peptide was used to stimulate cells and cross reactivity was tested for extracts from each pollen species. The number of mismatches (# of mm) for each peptide compared to the pollen species and the reactivity of the extracts as a percentage of the reactivity compared to the peptide are shown.
PBMCs from Phl p reactive donors were expanded with individual PG+ peptides as well as peptides derived from major allergens of Phl p for 14 days (peptides shown in Table 10). For each peptide, the mismatch to a corresponding sequence in a non-grass pollen species or a pollen species other than Phl p were determined. Cytokine IL-5 responses were measured in response to the peptide itself, Phl p extract and extracts of the other pollen species. Reponses to extracts and peptide pools were expressed as the relative fraction of the response to the peptide itself and plotted as a function of conservation of the peptide in the different extracts (FIG. 1).

[3] = reactivity of extract as percentage of reactivity to the peptide, PBMCs expanded 14 days with the peptide

Row | Substance | No of PG+ & th+ peptides per NTGA [1] | No of PP & Th+ peptides per NTGA [1] | # Th+ [1] | also measured
1 | 5 (KLAMQEFMILPTGAS) [compound 5] | 0 | 0 | 0 | 
2 | 12 (RAAVPSGASTGVYEA) [compound 12] |  |  | 0 | 
3 | 14 (LGAAAVYAGLKFRAP) [compound 14] |  |  | 0 | 
4 | 15 (GASTGVYEALELRDG) [compound 15] |  |  | 0 | 
5 | 16 (QTELDNFMVHQLDGT) [compound 16] | 2 | 2 | 0 | NTGA's containing at least one T cell epitope, Th+ (Col 2) [1]: 16
6 | 17 (VDNVNSIIGPALIGK) [compound 17] |  |  | 0 | 
7 | 18 (ENRSVLHVALRAPRD) [compound 18] | 0 | 0 | 0 | 
8 | 21 (VVSKTFTTAETMLNA) [compound 21] | 0 | 0 | 0 | 
9 | 23 (RYSVCSAVGVLPLSL) [compound 23] |  |  | 0 | 
10 | 25 (VLLGLLSVWNVSFLG) [compound 25] |  |  | 0 | 
11 | 28 (NGQHSFYQLIHQGRV) [compound 28] | 0 | 0 | 0 | 
12 | 31 (QGFIWGINSFDQWGV) [compound 31] | 0 | 0 | 0 | 
13 | 33 (DDGKVYLEMSYYFEI) [compound 33] | 0 | 0 | 0 | 
14 | 35 (RNMVLGKRFFVTPSD) [compound 35] | 2 | 1 | 0 | NTGA's containing at least one T cell epitope, Th+ (Col 2) [1]: 35
15 | 36 (KRFFVTPSDSVAIIA) [compound 36] | 0 | 0 | 0 | 
16 | 37 (SDSVAIIAANAVQSI) [compound 37] |  |  | 0 | 
17 | 38 (AVQSIPYFASGLKGV) [compound 38] | 0 | 0 | 0 | 
18 | 40 (GIWAVLAWLSIIAYK) [compound 40] | 2 | 2 | 0 | NTGA's containing at least one T cell epitope, Th+ (Col 2) [1]: 40
19 | 41 (LVSVEDIVLQHWATY) [compound 41] |  |  | 0 | 
20 | 42 (HQGIRYLFGDGSRLV) [compound 42] | 1 | 1 | 0 | NTGA's containing at least one T cell epitope, Th+ (Col 2) [1]: 42
21 | 44 (GATIRIYIEQYEKDS) [compound 44] | 0 | 0 | 0 | 
22 | 45 (DALSPLVDVALKLSK) [compound 45] |  |  | 0 | 

Row | Substance | No of PG+ & th+ peptides per NTGA [1] | No of PP & Th+ peptides per NTGA [1] | # Th+ [1] | also measured
23 | 46 (LDIAVRLLEPIKEQV) [compound 46] |  |  | 1 | 
24 | 48 (ILSYADFYQLAGVVA) [compound 48] | 0 | 0 | 0 | 
25 | 50 (NPLIFDNSYFTELLT) [compound 50] | 0 | 0 | 0 | 
26 | 54 (FLDLIVLQIESLNKK) [compound 54] |  |  |  | NTGA's containing at least one T cell epitope, Th+ (Col 2) [1]: 54
27 | 55 (LNKKYGSNVPLLLMN) [compound 55] | 0 | 0 | 0 | 
28 | 57 (LKIVEKYANSSIDIH) [compound 57] | 0 | 0 | 0 | 
29 | 58 (GKLDLLLSQGKEYVF) [compound 58] | 0 | 0 | 0 | 
30 | 60 (SDNLGAIVDMKILNH) [compound 60] | 0 | 0 | 0 | 
31 | 61 (ISYEGRVQLLEIAQV) [compound 61] |  |  | 0 | 
32 | 63 (FKSIEKFKIFNTNNL) [compound 63] |  |  | 0 | 
33 | 66 (IKRLVEADALKMEII) [compound 66] |  |  | 0 | 
34 | 67 (VKVLQLETAAGAAIR) [compound 67] |  |  | 0 | 
35 | 68 (AAIRFFDHAIGINVP) [compound 68] |  |  | 0 | 
36 | 69 (GINVPRSRFLPVKAT) [compound 69] | 0 | 0 | 0 | 
37 | 70 (RFLPVKATSDLQLVQ) [compound 70] |  |  | 0 | 
38 | 71 (TSDLQLVQSDLYTLV) [compound 71] |  |  | 0 | 
39 | 72 (VQSDLYTLVDGFVTR) [compound 72] | 2 | 1 | 0 | NTGA's containing at least one T cell epitope, Th+ (Col 2) [1]: 72
40 | 74 (GRFKSIPSIVELDSL) [compound 74] |  |  | 0 | 
41 | QYAKEIWGITANPVP |  |  |  | Amb p % Reactivity ([2]; Amb p (weed) pollen extract, reactivity of extract as percentage of reactivity to the peptide, PBMCs expanded 14 days with the peptide): 83%; Ant o % Reactivity [2, 3]: 2%; Bet v % Reactivity [2, 3]: 73%; Cyn d % Reactivity ([2]; Cyn d (grass) pollen extract, reactivity of extract as percentage of reactivity to the peptide, PBMCs expanded 14 days with the peptide): 10%; Lol p % Reactivity [2, 3]: 24%; Ole e % Reactivity ([2]; Ole e (tree) pollen extract, reactivity of extract as percentage of reactivity to the peptide, PBMCs expanded 14 days with the peptide): 44%; Pla l % Reactivity ([2]; Pla l (weed) pollen extract, reactivity of extract as percentage of reactivity to the peptide, PBMCs expanded 14 days with the peptide): 15%; Poa p % Reactivity ([2]; Poa p (grass) pollen extract, reactivity of extract as percentage of reactivity to the peptide, PBMCs expanded 14 days with the peptide): 22%; Que a % Reactivity [2, 3]: 32%; Controls, Irrelevant Pool ([2]; control: response to irrelevant pool of cells expanded with the peptide): 7; Controls, Relevant Pool [2]: 100; % Reactivity, Fra e [2]: 12%
42 | SDAKTLVLNIKYTRP |  |  |  | Controls, Relevant Pool [2]: 88 and 100 and 81 and 80
43 | STWYGKPTGAGPKDN |  |  |  | Ant o % Reactivity [2, 3]: 51% and 64%; Bet v % Reactivity [2, 3]: 0%; Lol p % Reactivity [2, 3]: 64% and 40%; Que a % Reactivity [2, 3]: 1% and 0%; % Reactivity, Fra e [2]: 1% and 0%
